Data on 3 compounds can be found in patent US5235061A, “Fungicidal (1H-1,2,4-triazolyl)disilaalkanes” (priority 1991, dated 1993).

Common to all, as to assay: In vitro percent disease control (radii of spore growth on agar)
Common to all, as to format: cell-based

Series [1] deals with Glomerella cingulata. As to conditions: Colletotrichum gloeosporioides, read-out: % controlled, Glo. The method, boiled down:
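Compounds were dissolved in acetone (10% of final volume) plus water at 100 ppm and 50 ppm and mixed into potato-sucrose agar. G. cingulata was spotted centrally and incubated for several days in a growth room. Percent disease control was derived from the radii of spore growth.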

The subject of series [2] is Alternaria mali. The settings on record: Alternaria mali, read-out: % controlled, Al. The method, boiled down:
(§1)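 Compounds in acetone (10% of final volume) diluted with water to 100 and 50 ppm, then mixed into potato-sucrose-agar with each fungus spotted centrally. Incubated several days in a growth room; percent disease control derived from radii of spore growth.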

In series [3] the test system is Rhizopus sp. As to conditions: Rhizopus, read-out: % controlled, Rhi. sp. The method in brief: as §1
Series [4] deals with Phytophthora capsisi. The settings on record: Phytophthora, read-out: % controlled, Phy ca. The method, boiled down:
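Compounds dissolved in acetone (10% of final volume) then water at 100 ppm and 50 ppm, mixed into potato-sucrose-agar; fungus spotted at plate centre and incubated several days. Percent disease control derived from radii of spore growth.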

Series [5] relates to Botry tris cinerea. As to conditions: read-out: % controlled, Bo ci. The method in brief: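 Compounds at 100 and 50 ppm (acetone 10% of final volume, rest water) mixed into potato-sucrose agar; Botrytis cinerea spotted at dish centre. After several days' incubation, percent disease control calculated from radii of spore growth.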
The test system of series [6] is Botryosphaeria dothidea Macrophoma sp. As to conditions: Botryosphaeria dothidea, read-out: % controlled, Bo.do (Ma.). The method in brief: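 Compounds (100 and 50 ppm, 10% acetone in water) were mixed into potato-sucrose-agar and the fungus was spotted centrally, then incubated several days in a growth room. Percent disease control came from radii of spore growth.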

Series [7] relates to Physalospora baccae. The settings on record: read-out: % controlled, Phy ba. The method in brief: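 Compounds at 100 and 50 ppm (10% acetone) mixed into potato-sucrose-agar, fungus spotted centrally and grown several days in a growth room. Percent disease control derived from radii of spore growth.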
The test system of series [8] is Pyricalaria oryzae. As to conditions: for inhibition of growth at 50 ppm: read-out: % controlled, Py. or., 50 ppm; for inhibition of growth at 100 ppm: read-out: % controlled, Py. or., 100 ppm. The method in brief:
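Compounds at 100 ppm and 50 ppm (10% acetone in water) mixed into potato-sucrose-agar, P. oryzae spotted centrally and incubated several days. Percent disease control derived from radii of spore growth.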

In series [9] the test system is Fusarium moniliforme. The method in brief:
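Compounds in 10% acetone/water at 100 and 50 ppm were mixed into potato-sucrose-agar, with Fusarium moniliforme spotted centrally. After several days' incubation, percent disease control was derived from radii of spore growth.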

Series [10] deals with Rhizoctonia solani. The settings on record: Rhizoctonia solani, read-out: % controlled, Rhy. so. The method in brief:
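Test compounds at 100 ppm and 50 ppm (acetone 10% of final volume, then water) were mixed into potato-sucrose-agar, and the fungus was spotted at the dish centre. Dishes were incubated several days in a growth room. Percent disease control was derived from the radii of spore growth.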

For the compound `C=CC[Si](C[Si](C)(Cn1cncn1)c1ccc(F)cc1)(c1ccc(F)cc1)c1ccc(F)cc1` (stereo not drawn) [4,4,6-tris(4-fluorophenyl)-6-methyl-4,6-disila-7-(1H-1,2,4-triazole-1-yl)-1-heptane], the inhibition of growth at 50 ppm in [1] came to 71%; in [2], 63%; in [3] it was 19%; in [4], 50%; in [5], 69%; in series [6], 74%. The inhibition of growth at 50 ppm in series [7] was found to be 53%; in [8] it was 100%; in [10], 78%. Besides, the inhibition of growth at 100 ppm in series [1] stood at 77%; in [2], 72%; in [3], 43%; in series [4], 60%; in series [5] it was 66%; in [6], 78%. In addition, the inhibition of growth at 100 ppm stood at 74% in series [7], 100% in series [8] and 78% in [10]. Also, the “% controlled, Fu. mo.” value is 58% in series [9] (50 ppm) and 63% in series [9] (100 ppm).
In the case of `C[Si](C)(C[Si](Cn1cncn1)(c1ccc(F)cc1)c1ccc(F)cc1)c1ccc(Cl)cc1` [4-(4-chlorophenyl)-2,2-bis(4-fluorophenyl)-4-methyl-2,4-disila-1-(1H-1,2,4-triazol-1-yl)pentane], the inhibition of growth at 50 ppm in series [1] was 87%; in series [2] it was 32%; in series [3] it was 78%; in [4] it was 10%; in [5], 76%; in series [6], 76%. Also, the results for the inhibition of growth at 50 ppm in [7], in [8] and in series [10] were 80%, 76% and 100%, respectively. The inhibition of growth at 100 ppm was determined as 90% in series [1]; 34% in series [2]; 89% in [3]; 12% in series [4]; 80% in series [5]; 87% in series [6]. In addition, the inhibition of growth at 100 ppm in series [7] is 100%; in series [8] it was 87%; in series [10] it was 100%. Also, the “% controlled, Fu. mo.” value is on record as 45% in series [9] (50 ppm) and 56% in [9] (100 ppm).
`C[Si](C)(C[Si](C)(Cn1cncn1)c1ccc(F)cc1)c1ccc(Cl)cc1` (stereo not drawn) [4-(4-chlorophenyl)-2-(4-fluorophenyl)-2,4-dimethyl-2,4-disila-1-(1H-1,2,4-triazol-1-yl)pentane]: the inhibition of growth at 50 ppm in series [1] amounted to 0%; in [2], 84%; in series [3], 59%; in [4], 43%; in series [5], 100%; in series [6], 74%. The figures for the inhibition of growth at 50 ppm in series [7], in series [8] and in [10] were 78%, 100% and 93%, respectively. The inhibition of growth at 100 ppm in series [1] was 0%; in series [2] it was 84%; in series [3] it was 65%; in series [4], 54%; in [5], 100%; in [6], 86%. Also, the inhibition of growth at 100 ppm stood at 82% in series [7], 100% in series [8] and 100% in [10]. The figures for the “% controlled, Fu. mo.” value in [9] (50 ppm) and in series [9] (100 ppm) were 67% and 69%, respectively.
